Key:
[1] = biological target: T1, purified LasB protein from P. aeruginosa (Pseudomonas aeruginosa, UniProt P14756); experiment: Fluorometric assay to determine Ki (purified LasB, Abz-Ala-Gly-Leu-Ala-p-Nitro-Benzyl-Amide substrate); assay type: biochemical
T1 construct: purchased Merck or Charles River Laboratories
Description: (§1) Experiments were therefore conducted (1) to measure the potency of inhibition of compounds of the invention against purified Pseudomonas aeruginosa LasB enzyme and also experiments were conducted (2) to measure the ability of compounds of the invention to inhibit LasB-catalysed elastin degradation. The first assay uses a commercial fluorescent synthetic peptide and purified LasB enzyme. The LasB hydrolysis kinetics are measured allowing the determination of the IC50 and Ki of the inhibitors; the second is a more physiological assay using dialysed Pseudomonas aeruginosa supernatant as source of enzyme, plus its natural substrate Elastin. It is an “end point assay” that determines the percentage of LasB inhibition by each compound for one particular time point and inhibitor concentration. Technical details are described below:
This assay uses commercially available substrate (Abz-Ala-Gly-Leu-Ala-p-Nitro-Benzyl-Amide (Ex: 340 nm, Em: 415 nm) from Peptide International) and purified LasB protein from P. aeruginosa (provided by Merck or Charles River Laboratories). It is performed to determine LasB elastase activity and assess compound inhibition in 96-well plate format. All compounds of Formula (I) were assessed using the method described below.
Method: 10 to 140 ng/ml purified LasB is incubated with 250 μM Abz-Ala-Gly-Leu-Ala-p-Nitro-Benzyl-Amide in 50 mM Tris-HCl pH 7.4, 2.5 mM CaCl2), 0.01% of Triton X100 at 37° C. LasB activity (corresponding to fluorescence emission induced by substrate hydrolysis) is measured over 30 min at 37° C. with a fluorescence plate reader such as the Perkin Elmer Envision or similar. Different range of inhibitor concentrations are routinely assessed depending of inhibitor potency from 0.0016 to 200 μM (2-fold dilutions series) in order to determine IC50.
The equation used to calculate the Ki from IC50 is: Ki=IC50/(1+([S]/Km)) where [S]=250 μM and Km=214 μM.

[2] = biological target: T2, LasB elastase activity of dialysed supernatant from P. aeruginosa PAO1 (Pseudomonas aeruginosa, UniProt P14756); experiment: Elastin Congo-Red assay to determine % inhibition (dialysed PAO1 supernatant); assay type: biochemical; conditions: read-out: Elastin hydrolysis % inhibition @ 25 μM inhibitor concentration
T2 construct: Culture supernatants are recovered by centrifugation and filtrated through a 0.22 μM filter; endogenous in cells; host or cells: P. aeruginosa strain PAO1, culture supernatant, filtered and dialysed
Description: as §1
The Elastin assay uses as source of enzyme dialysed supernatant from P. aeruginosa PAO1 and the Elastin Congo-Red as substrate. The natural LasB substrate, elastin, is complexed with the congo-red dye (Elastin Congo-Red, ECR). The elastolysis activity from the culture supernatant will degrade elastin and release the congo-red dye into the supernatant. This red dye release can be measured with a spectrophotometer.
Method: To determine LasB elastase activity and assess compound inhibition, an overnight culture of P. aeruginosa strain PAO1 is diluted in LB medium. After reaching an OD600nm of 0.6, this culture is diluted and incubated for additional 18-24 hours in a shaking incubator. Culture supernatants are recovered by centrifugation and filtrated through a […] filter. These supernatants are dialysed (filtration molecules <20 kDa) into a 50 mM Tris-HCl pH 7.4, 2.5 mM CaCl2 solution at 4° C. under agitation for 24 hours. Supernatant dialysed is then mixed volume/volume with the ECR suspension (20 mg/mL of ECR in 100 mM Tris-HCl pH 7.4 buffer supplemented with 1 mM CaCl2)) supplemented with Triton X100 (final concentration of 0.01%) in presence of DMSO (positive control) and/or different concentrations of compound (routinely 50 to 1.56 μM). As a negative control, the dialysed supernatant is replaced by Tris-HCl solution (50 mM Tris-HCl pH 7.4, 2.5 mM CaCl2). The mixed reaction is then incubated overnight in a 37° C. shaking incubator. The reaction supernatant is recovered by centrifugation and the release of congo-red is measured by its absorbance at 495 nm (OD495nm).
Percentage inhibition is determined using the following equation:
((OD495 nm value of positive control−OD495nm value of negative control)−(OD495nm value of treated supernatant−OD495nm value of negative control))/(OD495nm value of positive control−OD495nm value of negative control)×100.

T1 sequence (P14756 198-498): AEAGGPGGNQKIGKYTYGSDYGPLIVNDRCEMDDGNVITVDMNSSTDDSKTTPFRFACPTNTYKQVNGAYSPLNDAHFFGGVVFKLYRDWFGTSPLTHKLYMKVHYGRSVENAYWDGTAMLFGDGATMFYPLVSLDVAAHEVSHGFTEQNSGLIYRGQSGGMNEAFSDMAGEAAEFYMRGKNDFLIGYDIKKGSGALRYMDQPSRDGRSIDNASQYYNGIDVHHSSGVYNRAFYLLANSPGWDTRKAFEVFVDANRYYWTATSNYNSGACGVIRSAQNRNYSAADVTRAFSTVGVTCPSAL
T2 sequence (P14756 198-498): as above

Row | SMILES | Ki [1] [nM] | inhibition at 25 µM [2] [%]
1 | COc1cc2sc(CNC(=O)C3(CC(=O)O)Cc4ccccc4C3)nc2cc1S(=O)(=O)N1CCC(N(C)C)CC1 [Example 46, 2-[2-[[5-[[4-(dimethylamino)-1-piperidyl]sulfonyl]-6-methoxy-1,3-benzothiazol-2-yl]methylcarbamoyl]indan-2-yl]acetic acid] | 50 to 200 | 60 to 80
2 | CC[N+](C)(CC)CCCOc1cc2nc(CNC(=O)C3(CC(=O)[O-])Cc4ccccc4C3)sc2cc1OC [Example 18, 2-[2-[[5-[3-[diethyl(methyl)ammonio]propoxy]-6-methoxy-1,3-benzothiazol-2-yl]methylcarbamoyl]indan-2-yl]acetate] | < 50 | 60 to 80
3 | COc1cc2sc(CNC(=O)C3(CC(=O)[O-])Cc4ccccc4C3)nc2cc1S(=O)(=O)N1CCC([N+](C)(C)C)CC1 [Example 47, 2-[2-[[6-methoxy-5-[[4-(trimethylammonio)-1-piperidyl]sulfonyl]-1,3-benzothiazol-2-yl]methylcarbamoyl]indan-2-yl]acetate] | 50 to 200 | 60 to 80
4 | COc1cc2sc(CNC(=O)C3(CC(=O)[O-])Cc4cc(F)c(F)cc4C3)nc2cc1C(=O)N1CC([N+](C)(C)C)C1 [Example 43, 2-[5,6-difluoro-2-[[6-methoxy-5-[3-(trimethylammonio)azetidine-1-carbonyl]-1,3-benzothiazol-2-yl]methylcarbamoyl]indan-2-yl]acetate] | 50 to 200 | 60 to 80
5 | COc1cc2sc(CNC(=O)C3(CC(=O)O)Cc4ccccc4C3)nc2cc1C(=O)N1CCC(N(C)C)CC1 [Example 38, 2-[2-[[5-[4-(dimethylamino)piperidine-1-carbonyl]-6-methoxy-1,3-benzothiazol-2-yl]methylcarbamoyl]indan-2-yl]acetic acid] | 50 to 200 | 60 to 80
6 | CN1CCN(CCOc2ccc3sc(CNC(=O)C4(CC(=O)O)Cc5ccccc5C4)nc3c2)CC1 [Example 25, 2-[2-[[5-[2-(4-methylpiperazin-1-yl)ethoxy]-1,3-benzothiazol-2-yl]methylcarbamoyl]indan-2-yl]acetic acid] | 200 to 10000 | 60 to 80
7 | N#Cc1ccc2sc(CNC(=O)C3(CC(=O)O)Cc4ccccc4C3)nc2c1 [Example 49, 2-[2-[(5-cyano-1,3-benzothiazol-2-yl)methylcarbamoyl]indan-2-yl]acetic acid] | 50 to 200 | 60 to 80
8 | COc1cc2sc(CNC(=O)C3(CC(=O)O)Cc4ccccc4C3)nc2cc1C(=O)N1CCN(C)CC1 [Example 33, 2-[2-[[6-methoxy-5-(4-methylpiperazine-1-carbonyl)-1,3-benzothiazol-2-yl]methylcarbamoyl]indan-2-yl]acetic acid] | < 50 | 60 to 80
9 | COc1cc2sc(CNC(=O)C3(CC(=O)[O-])Cc4ccccc4C3)nc2cc1OCCC[N+]1(C)CCOCC1 [Example 16, 2-[2-[[6-methoxy-5-[3-(4-methylmorpholin-4-ium-4-yl)propoxy]-1,3-benzothiazol-2-yl]methylcarbamoyl]indan-2-yl]acetate] | < 50 | 60 to 80
10 | COc1cc2sc(CNC(=O)C3(CC(=O)[O-])Cc4cc(F)c(F)cc4C3)nc2cc1OCCC[N+]1(C)CCOCC1 [Example 15, 2-[5,6-difluoro-2-[[6-methoxy-5-[3-(4-methylmorpholin-4-ium-4-yl)propoxy]-1,3-benzothiazol-2-yl]methylcarbamoyl]indan-2-yl]acetate] | 50 to 200 | 60 to 80
11 | COc1cc2sc(CNC(=O)C3(CC(=O)[O-])Cc4cc(F)c(F)cc4C3)nc2cc1C(=O)N1CC[N+](C)(C)CC1 [Example 35, 2-[2-[[5-(4,4-dimethylpiperazin-4-ium-1-carbonyl)-6-methoxy-1,3-benzothiazol-2-yl]methylcarbamoyl]-5,6-difluoro-indan-2-yl]acetate] | 50 to 200 | 60 to 80
12 | COc1cc2sc(CNC(=O)C3(CC(=O)[O-])Cc4ccccc4C3)nc2cc1C(=O)N1CC([N+](C)(C)C)C1 [Example 42, 2-[2-[[6-methoxy-5-[3-(trimethylammonio)azetidine-1-carbonyl]-1,3-benzothiazol-2-yl]methylcarbamoyl]indan-2-yl]acetate] | 200 to 10000 | 60 to 80
13 | COc1cc2sc(CNC(=O)C3(CC(=O)[O-])Cc4ccccc4C3)nc2cc1OCC1CC[N+](C)(C)CC1 [Example 17, 2-[2-[[5-[(1,1-dimethylpiperidin-1-ium-4-yl)methoxy]-6-methoxy-1,3-benzothiazol-2-yl]methylcarbamoyl]indan-2-yl]acetate] | 50 to 200 | 60 to 80
14 | CN1CCN(C(=O)c2ccc3sc(CNC(=O)C4(CC(=O)O)Cc5ccccc5C4)nc3c2)CC1 [Example 27, 2-[2-[[5-(4-methylpiperazine-1-carbonyl)-1,3-benzothiazol-2-yl]methylcarbamoyl]indan-2-yl]acetic acid] | 50 to 200 | 60 to 80
15 | COc1cc2sc(CNC(=O)C3(CC(=O)[O-])Cc4cc(F)c(F)cc4C3)nc2cc1OCC(=O)N1CC[N+](C)(C)CC1 [Example 14, 2-[2-[[5-[2-(4,4-dimethylpiperazin-4-ium-1-yl)-2-oxo-ethoxy]-6-methoxy-1,3-benzothiazol-2-yl]methylcarbamoyl]-5,6-difluoro-indan-2-yl]acetate] | 50 to 200 | 60 to 80
16 | COc1cc2sc(CNC(=O)C3(CC(=O)O)Cc4cc(F)c(F)cc4C3)nc2cc1OCC(=O)N1CCN(C)CC1 [Example 12, 2-[5,6-difluoro-2-[[6-methoxy-5-[2-(4-methylpiperazin-1-yl)-2-oxo-ethoxy]-1,3-benzothiazol-2-yl]methylcarbamoyl]indan-2-yl]acetic acid] | 50 to 200 | 60 to 80
17 | COc1cc2sc(CNC(=O)C3(CC(=O)O)Cc4ccccc4C3)nc2cc1C(=O)N1CC(N(C)C)C1 [Example 36, 2-[2-[[5-[3-(dimethylamino)azetidine-1-carbonyl]-6-methoxy-1,3-benzothiazol-2-yl]methylcarbamoyl]indan-2-yl]acetic acid] | < 50 | > 80
18 | CN1CCN(C(=O)COc2ccc3sc(CNC(=O)C4(CC(=O)O)Cc5ccccc5C4)nc3c2)CC1 [Example 24, 2-[2-[[5-[2-(4-methylpiperazin-1-yl)-2-oxo-ethoxy]-1,3-benzothiazol-2-yl]methylcarbamoyl]indan-2-yl]acetic acid] | 200 to 10000 | 60 to 80
19 | COc1cc2sc(CNC(=O)C3(CC(=O)[O-])Cc4ccccc4C3)nc2cc1C(=O)N1CCOC(C[N+](C)(C)C)C1 (stereo not drawn) [Example 41, 2-[2-[[6-methoxy-5-[2-[(trimethylammonio)methyl]morpholine-4-carbonyl]-1,3-benzothiazol-2-yl]methylcarbamoyl]indan-2-yl]acetate] | 50 to 200 | 60 to 80
20 | N#Cc1ccc2nc(CNC(=O)C3(CC(=O)O)Cc4ccccc4C3)sc2c1 [Example 48, 2-[2-[(6-cyano-1,3-benzothiazol-2-yl)methylcarbamoyl]indan-2-yl]acetic acid] | 50 to 200 | 60 to 80
21 | COc1cc2sc(CNC(=O)C3(CC(=O)O)Cc4ccccc4C3)nc2cc1OCC(=O)N1CCN(C)CC1 [Example 8, 2-[2-[[6-methoxy-5-[2-(4-methylpiperazin-1-yl)-2-oxo-ethoxy]-1,3-benzothiazol-2-yl]methylcarbamoyl]indan-2-yl]acetic acid] | 50 to 200 | 60 to 80

From US20240016941A1, “COMBINATION THERAPY” (priority 2020, published 2024)
